Test results published in article PMC11061730, “Bacterial stigmasterol degradation involving radical flavin delta-24 desaturase and molybdenum-dependent C26 hydroxylase” (The Journal of Biological Chemistry, 2024).

Columns and labels:
[1] = molecular target: T1, Δ24-steroid desaturase (Δ24-SD) (Sterolibacterium denitrificans, UniProt A0A7Z7MWF7+A0A7Z7MWR3); test: LC-MS/MS of tryptic peptides; acid denaturation; assay type: binding; settings: covalent; histidyl residue near N terminus in both subunits
T1 construct: gene SDENCHOL_21263; alpha 63 kDa, beta 57 kDa; covalent FMN on a histidine of each subunit

[2] = substrate: CC[C@H](/C=C/[C@@H](C)[C@H]1CC[C@H]2[C@@H]3CCC4=CC(=O)C=C[C@]4(C)[C@H]3CC[C@]12C)C(C)C; test: UPLC assay of SDO to STO conversion, Michaelis-Menten fit; assay type: biochemical, Sterolibacterium denitrificans; settings: 1 mM DCPIP as electron acceptor, 50 mM Mops/KOH pH 7.0, 6% (w/v) HPCD, 30 °C, aerobic

Molecule	LC-MS/MS of tryptic peptides; acid denaturation [1]	Km [2]
Cc1cc2nc3c(=O)[nH]c(=O)nc-3n(C[C@H](O)[C@H](O)[C@H](O)COP(=O)(O)O)c2cc1C [flavin mononucleotide]	contained flavin mononucleotide (FMN) modifications in both subunits	
Δ24-steroid desaturase (Δ24-SD) (Sterolibacterium denitrificans) (protein, alpha 63 kDa, beta 57 kDa; covalent FMN on a histidine of each subunit) chain 1: MKNYDVIIIGGGINGLTTACYLQKAGLSVGVFEARGQCGAHCDTIELGRPGFLFNTHATWLVPAMSPPMADLELEKFNLELLGTDVIFAMPHADGTNTVQALDPGITMASIARHSEKDAALLGRIMEFGMMHMQEALEINGQMQYSRPTMALAERIAKLNDGLCKHLGLPIDGDDVMRMTGFELLELVYESEKVRLVPGTLGEYTGQWPLNRRVAPTVLGLCGMNPMAVHTAKGGSHALNHALVRCFVKHGGEIWTTCPVSKIIVENGRAVGIKLSEDALMPGEEIRAKNIVSNLTLTPTFTKLLGEEVIGPDWMRRIKYFNYDDPQLLGMYYAMKDAPVFKSAEYDPAIQRCWVGYFGPDSIDDVRNAQSQVMAGIMPTQTMGGWFNPTLADPSQAPAGHHVVSTWITVPPSPRKWGNKTLNGWSSWREGFGEALADTMDDLYEKMAPGFKDLIIERHINTPMDQENSNPSAVRGNMIGGSAIPEQAGENRPLPGVCVNGASRTFIPGLYLSNSIHPFGATHLASGYIAAVELAEDLGCRNQSWWISQPFEWFMGNLGNIPLNAGVADKWKV chain 2: MSNETKFDAIVIGGGPNGLLAGAYLAKTGHKVVLFERRHETGGGLNTDEYFGFRFNLHAIYHLMAEKMPAWKDLDLANFGVRYLYPHVVAAFPFKDGSSLIFTRDVKETAESIAQFSKEDAAAYLAMWDEFQPMLDDYLIPMTYELPKPALDQLAEFGETEVGAKLAEISELSCLEVIDHYGFTHPRVRMALLSFPAMWGIHLADPLGFLYPLYLGRMLDAAFVKGGSHRLSSGMYRVFVKNGGTVIDENEVTRILVEDNRVTGVELQDGRRFMADAVVSTLNPVQTFKQLLPKDDVPYALHQAVDNWRWEERSFFGLHLGIDGGVRYNAQDPRVNEAMTVFIGLETEDELLDHLDRVDGKTTNGPEWLHIAQPTTFDKTMAPPNHSVIRAEAVVAYDPEWRARTPAFAAGCLDLIKQYATVDKVVQQRTVSPIDIEEKLTTMHRGSYKHGAYSTLQLGYLRPNDLCSCSETPIDGLFLGGASMYPGGMILGGPGYLAAQVTNDYLGEPVKK		51.5 ± 8.2 µM
